Results reported in patent publication US7786172B2 (priority 2002, dated 2010).
Like-named read-outs stand apart in the source and are kept apart here. One block for each compound: values may come before it.

Tests used:
mastalgia [1] = details: cited from earlier work; for side effects: cyclical mastalgia treatment, nausea, vomiting, dizziness, headache, acne, sweating, amenorrhea, weight gain
[2] = Example 1: percutaneous [3H]-4-hydroxy tamoxifen delivery in breast cancer patients (tissue, blood, urine radioactivity)
Experimental: The patients received [^3H]-labeled drug applied directly on the affected breasts at specified intervals ranging from 12 hours to 7 days before surgery to excise diseased tissue. Breast tissue from three regions: the tumor, tissue immediately surrounding the tumor, and normal tissue, was excised and immediately frozen in liquid nitrogen. Additionally, plasma and urine samples were obtained at scheduled intervals and frozen until analysis.

Skin penetration = details: without assistance from penetration enhancers
[3] = Example 3: pharmacokinetics of 4-hydroxy tamoxifen gel in healthy premenopausal women; format: in vivo, human
Experimental: Each participant applied the gel daily for the duration of two menstrual cycles.
At the end of a menstrual cycle, each patient received a single dose, after which serial blood samples were collected at 0, 0.5, 1, 1.5, 2, 3, 4, 6, 12, 18, 24, 36, 48, and 72 hours.
On the first day of the following menstruation, treatment, which consisted of daily application of the gel over two menstrual cycles, began. Blood samples were collected 24 hours following the morning application of gel on days 7, 20 and 25 of the first and second cycles. On the last day of administration, day 25 of the second menstrual cycle, serial blood samples were collected prior to application and at 0.5, 1, 1.5, 2, 3, 4, 6, 12, 18, 24, 36, 48, and 72 hours after application of the gel.

mastalgia [4] = experiment: Example 4: efficacy of percutaneous 4-hydroxy tamoxifen in mastalgia; format: in vivo, human
From the text: All patients had normal mammograms within the previous 6 months, and utilized contraception throughout the study and 3 months preceding it.
The primary criteria considered were the number of painful days per month and the mean pain severity during the last 10 days of the menstrual cycle. Assessments of pain were made by patient self-evaluation. Secondary criteria included clinical assessment by the physician of breast tenderness, nodularity, breast size, local warmth, and breast circumference. Any side effects were recorded.
Daily self-evaluation of pain continued as in the earlier stage.

rat liver = details: in vivo; cited from earlier work

Compound: CC(C)C[C@H]1C(=O)N2CCC[C@H]2[C@]2(O)O[C@](NC(=O)[C@@H]3C=C4c5cccc6[nH]c(Br)c(c56)C[C@H]4N(C)C3)(C(C)C)C(=O)N12 [bromocriptine]
- side effects (mastalgia [1]): significant unwanted side effects

- retention in the breast ([2]; percutaneous application of [3H]-labeled drug to the affected breast): shorter and far weaker
Compound: CC/C(=C(\c1ccccc1)c1ccc(OCCN(C)C)cc1)c1ccccc1 [tamoxifen]
- side effects reported by mastalgia patients (mastalgia [1]; oral tamoxifen): hot flashes, vaginal discharge, depression, amenorrhea, and nausea
- patients with reduced pain (mastalgia [1]; orally administered, patients with moderate to severe mastalgia): 71-90%
- effective at reducing pain (mastalgia [1]; patients with cyclical mastalgia): 94%
- effective at reducing pain (mastalgia [1]; patients with non-cyclical mastalgia): 56%

Compound: C#C[C@]1(O)CC[C@H]2[C@@H]3CCC4=Cc5oncc5C[C@]4(C)[C@H]3CC[C@@]21C [danazol]
- side effects (mastalgia [1]): significant unwanted side effects
- efficacy at relieving cyclical mastalgia (mastalgia [1]; human, in vivo): some efficacy

Compound: CC/C(=C(\c1ccc(O)cc1)c1ccc(OCCN(C)C)cc1)c1ccccc1 [4-hydroxy tamoxifen, 1-[4-(2-N-dimethylaminoethoxy)phenyl]-1-(4-hydroxyphenyl)-2-phenylbut-1-(Z)-ene]
- skin penetration (Skin penetration): poorly penetrates the skin
- plasma concentrations after the last gel application ([3]; 72 hours after the last gel application): remained detectable
- Plasma concentration of 4-hydroxy tamoxifen, Mean ± SD (Range) ([3]; +8 days after last application, 0.5 mg/day, gel 20 mg/100 g): <LOQ
- Plasma concentration of 4-hydroxy tamoxifen, Mean ± SD (Range) ([3]; +8 days after last application, 1 mg/day, gel 57 mg/100 g): (0-14.8) pg/mL
- Plasma concentration of 4-hydroxy tamoxifen, Mean ± SD (Range) ([3]; +12 days after last application, 0.5 mg/day, gel 20 mg/100 g): ≤ 9.09 pg/mL
- Plasma concentration of 4-hydroxy tamoxifen, Mean ± SD (Range) ([3]; +12 days after last application, 2 mg/day, gel 57 mg/100 g): (0-30.4) pg/mL
- Plasma concentration of 4-hydroxy tamoxifen, Mean ± SD (Range) ([3]; +20 days after last application, 0.5 mg/day, gel 20 mg/100 g): 0 pg/mL
- Plasma concentration of 4-hydroxy tamoxifen, Mean ± SD (Range) ([3]; +20 days after last application, 1 mg/day, gel 20 mg/100 g): <LOQ
- Plasma concentration of 4-hydroxy tamoxifen, Mean ± SD (Range) ([3]; First cycle, Day 1, 0 hr, 0.5 mg/day, gel 20 mg/100 g): (0-17.2) pg/mL
- Plasma concentration of 4-hydroxy tamoxifen, Mean ± SD (Range) ([3]; First cycle, Day 1, 0 hr, 1 mg/day, gel 20 mg/100 g): (0-13.9) pg/mL
- Plasma concentration of 4-hydroxy tamoxifen, Mean ± SD (Range) ([3]; First cycle, Day 1, 0 hr, 1 mg/day, gel 57 mg/100 g): (0-9.5) pg/mL
- Plasma concentration of 4-hydroxy tamoxifen, Mean ± SD (Range) ([3]; First cycle, Day 1, 0 hr, 2 mg/day, gel 57 mg/100 g): (0-0) pg/mL
- plasma concentrations after a single dose ([3]; single 0.5 mg dose, gel): did not produce detectable plasma concentrations
- reduction of mean number of days with pain (mastalgia [4]; 1.5 mg/day): more than 50%
- reduction of mean pain intensity (mastalgia [4]; 1.5 mg/day): more than 50%
- Mean Number of Days of Pain Level Greater than 20 (mastalgia [4]; 1 dose/breast, 0.5 mg/day, placebo 8.1 +/− 4.2): 9.3 ± 5.2 days
- Mean Pain Intensity During the Last 10 Days of the Menstrual Cycle (mastalgia [4]; 1 dose/breast, 0.5 mg/day, placebo 34 +/− 25): 38 +/− 25 /100
- Mean Number of Days of Pain Level Greater than 20 (mastalgia [4]; 2 doses/breast, 1.0 mg/day): 8.2 ± 5.5 days
- Mean Pain Intensity During the Last 10 Days of the Menstrual Cycle (mastalgia [4]; 2 doses/breast, 1.0 mg/day): 29 +/− 23 /100
- Mean Number of Days of Pain Level Greater than 20 (mastalgia [4]; 3 doses/breast, 1.5 mg/day): 3.6 ± 5.2 days
- Mean Pain Intensity During the Last 10 Days of the Menstrual Cycle (mastalgia [4]; 3 doses/breast, 1.5 mg/day): 15 +/− 19 /100
- Mean Number of Days of Pain Level Greater than 20 (mastalgia [4]; 4 doses/breast, 2.0 mg/day): 4.7 ± 4.4 days
- Mean Pain Intensity During the Last 10 Days of the Menstrual Cycle (mastalgia [4]; 4 doses/breast, 2.0 mg/day): 17 +/− 19 /100
- rat liver carcinogenicity (rat liver): not
- peak urinary elimination compared to percutaneous tamoxifen ([2]; percutaneous administration): later time
- metabolism in cytosolic and nuclear fractions of breast tissue ([2]; percutaneous application): remained unmetabolized except for limited isomerization from the trans to the cis form

Compound: CCC(=C(c1ccc(O)cc1)c1ccc(O)cc1)c1ccccc1 [Bisphenol]
- % Metabolites in Breast Tissue ([2]; 12 hr after percutaneous trans-[3H]-4-hydroxy tamoxifen to the affected breast): 1%
- share of radioactivity in blood ([2]; 24 hours after percutaneous administration of [3H]-4-hydroxy tamoxifen): 11%
- % Metabolites in Breast Tissue ([2]; 24 hr after percutaneous trans-[3H]-4-hydroxy tamoxifen to the affected breast): 2%
- % Metabolites in Breast Tissue ([2]; 36 hr after percutaneous trans-[3H]-4-hydroxy tamoxifen to the affected breast): 3%
- % Metabolites in Breast Tissue ([2]; Day 4 after percutaneous trans-[3H]-4-hydroxy tamoxifen to the affected breast): 8%
- % Metabolites in Breast Tissue ([2]; Day 7 after percutaneous trans-[3H]-4-hydroxy tamoxifen to the affected breast): 8%

- plateau of radioactivity in blood ([2]; percutaneous application): 2 days
Compound: CC/C(=C(\c1ccccc1)c1ccc(OCCN(C)C)cc1)c1ccccc1 [[^3H]-tamoxifen, reference compound]
